Data reported in US8337871B2, “Insecticide formulation” (Endura S.p.A., priority 2003, dated 2012).

Columns and labels:
[1] = system: Heicoverpa Armigera strain (Cotton Bollworm); test: Mortality assay on Cotton Bollworm (example 20); type: in vivo; settings: in Agral 90, 24 hours
Procedure: Data obtained with αcypermethrin dissolved in 10 ml Agral 90, and with a mixture of αcypermethrin/PBO dissolved in 10 ml of Agral 90 (the PBO content being 0.2% with respect to αcypermethrin) are shown as a reference.

[2] = system: Bemisia Tabaci strain (B-Biotype) (Silver leaf whitefly); test: Mortality assay on Bemisia Tabaci (example 18); type: in vivo; settings: in Agral 90, 48 hours
Procedure: (B-Biotype) (Silver leaf whitefly) using the formulation described in example 16, dissolved in 10 ml Agral 90.

[3] = system: cotton aphid strain (Aphis Gossypii); test: Mortality assay on cotton aphid (example 19); settings: for No. insects alive/no. total insects after 24 hours: in Agral 90, 24 hours
Procedure: In a mortality assay conducted as reported in the literature [Gunning R. V. et al., J. Econ. Entomol.
A mortality assay was performed as reported in example 4 on a cotton aphid strain (Aphis Gossypii) using the formulation described in example 10, dissolved in 10 ml Agral 90. Data obtained with fenvalerate dissolved in 10 ml Agral 90, and with placebo (10 ml Agral 90) are shown as a reference. In all tests, concentration values are referred to the amount of active principle.

[4] = concentration 0.0005 % w/v active principle
[5] = concentration 0.001 % w/v active principle
[6] = concentration 0.01 % w/v active principle
[7] = concentration 0.1 % w/v active principle

SMILES | Mortality % [1, 4] | No. insects alive/no. total insects after 24 hours [1, 4] | Mortality % [1, 5] | No. insects alive/no. total insects after 24 hours [1, 5] | Mortality % [2, 6] | No. insects alive/no. total insects after 48 hours [2, 6] | Mortality % [2, 7] | No. insects alive/no. total insects after 48 hours [2, 7] | mortality at 0.002 % strength ([3]; Aphis gossypii, 24 h) | mortality at 0.02 % strength ([3]; Aphis gossypii, 24 h) | mortality at 0.2 % strength ([3]; Aphis gossypii, 24 h) | No. insects alive/no. total insects after 24 hours ([3]; concentration 0.002 % w/v active principle) | No. insects alive/no. total insects after 24 hours ([3]; concentration 0.02 % w/v active principle) | No. insects alive/no. total insects after 24 hours ([3]; concentration 0.2 % w/v active principle)
CC1(C)C(C=C(Cl)Cl)C1C(=O)OC(C#N)c1cccc(Oc2ccccc2)c1 (centres unmarked) [αcypermethrin] | 40% | 6/10 | 60% | 4/10 | 19% | 22/27 | 67% | 4/12 |  |  |  |  |  | 
CC(C)C(C(=O)OC(C#N)c1cccc(Oc2ccccc2)c1)c1ccc(Cl)cc1 (centres unmarked) [fenvalerate] |  |  |  |  |  |  |  |  | 0% | 20% | 40% | 10/10 | 8/10 | 6/10
